Data: patent US10329289B2, “6,7-dihydro-5H-pyrrolo[3,4-B]pyridin-5-one allosteric modulators of the M4 muscarinic acetylcholine receptor” (Merck Sharp & Dohme Corp., priority 2015, dated 2019)

These compounds were tested against T1, human M4 muscarinic acetylcholine receptor (Homo sapiens, UniProt P08173) (assay: human FLIPR-based M4 PAM assay (Ca2+ mobilization, CHO-K1 cells with human M4 receptor and Gαqi5)). Details: acetylcholine at 20% of maximum response, read-out: M4 PAM IP.
T1 construct: expressed in transfected cells; host or cells: CHO-K1
T1 sequence (P08173 1-479): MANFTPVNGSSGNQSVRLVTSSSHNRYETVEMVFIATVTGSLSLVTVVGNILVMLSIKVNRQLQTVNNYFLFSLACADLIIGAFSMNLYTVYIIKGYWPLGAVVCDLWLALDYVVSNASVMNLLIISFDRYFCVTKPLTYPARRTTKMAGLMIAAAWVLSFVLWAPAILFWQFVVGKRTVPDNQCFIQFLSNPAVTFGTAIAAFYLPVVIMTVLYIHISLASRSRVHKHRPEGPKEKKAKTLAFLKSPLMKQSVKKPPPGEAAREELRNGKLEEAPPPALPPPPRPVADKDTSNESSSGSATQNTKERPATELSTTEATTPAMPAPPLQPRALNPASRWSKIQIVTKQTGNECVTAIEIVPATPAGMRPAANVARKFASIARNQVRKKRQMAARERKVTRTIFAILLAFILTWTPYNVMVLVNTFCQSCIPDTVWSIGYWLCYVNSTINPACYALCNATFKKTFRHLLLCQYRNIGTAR
Type: cell-based
How it was run: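 Calcium-mobilization (FLIPR) readout in dye-loaded CHO-K1 cells co-expressing human M4 receptor and Gαqi5. Potentiation measured against acetylcholine at a concentration giving 20% of maximal response, with an optional 70% addition; the reported value is the curve inflection point from a 4-parameter logistic fit.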

| Structure (SMILES) | EC50 [nM] |
| --- | --- |
| Cc1c(N2CCC(Oc3ccc4c(c3)CCOC4)CC2)nc2c(c1C)C(=O)N(C)[C@@H]2CO [Example 369, (S)-7-(hydroxymethyl)-2-(4-(isochroman-6-yloxy)piperidin-1-yl)-3,4,6-trimethyl-6,7-dihydro-5H-pyrrolo[3,4-b]pyridin-5-one] | 57 |
| Cc1c(N2CCC(Oc3ccc4c(c3)CCOC4)CC2)nc2c(c1C)C(=O)N(C)[C@H]2CO [Example 370, (R)-7-(hydroxymethyl)-2-(4-(isochroman-6-yloxy)piperidin-1-yl)-3,4,6-trimethyl-6,7-dihydro-5H-pyrrolo[3,4-b]pyridin-5-one] | 1190 |
| Cc1cc2c(nc1N1CCC(Oc3ccc4c(cnn4CCO)c3)CC1)CNC2=O [Example 371, 2-(4-((1-(2-Hydroxyethyl)-1H-indazol-5-yl)oxy)piperidin-1-yl)-3-methyl-6,7-dihydro-5H-pyrrolo[3,4-b]pyridin-5-one] | 100 |

More lines, now with the values ahead:

| EC50 [nM] | Structure (SMILES) |
| --- | --- |
| 634 | C=Cc1c(C)c(N2CCC(Oc3ccc(OC)nc3)CC2)nc2c1C(=O)NC2 [Example 372, 2-(4-((6-Methoxypyridin-3-yl)oxy)piperidin-1-yl)-3-methyl-4-vinyl-6,7-dihydro-5H-pyrrolo[3,4-b]pyridin-5-one] |
| 69 | Cc1cc2c(nc1N1CCC(Oc3ccc4c(c3)CC(=O)C4)CC1)CNC2=O [Example 373, 3-Methyl-2-(4-((2-oxo-2,3-dihydro-1H-inden-5-yl)oxy)piperidin-1-yl)-6,7-dihydro-5H-pyrrolo[3,4-b]pyridin-5-one] |
| 69 | COc1ccc(OC2CCN(c3nc4c(cc3C)C(=O)N(CCO)C4CO)CC2)cn1 (stereo not drawn) [Example 375, 6-(2-Hydroxyethyl)-7-(hydroxymethyl)-2-(4-((6-methoxypyridin-3-yl)oxy)piperidin-1-yl)-3-methyl-6,7-dihydro-5H-pyrrolo[3,4-b]pyridin-5-one] |
